Test results published in a melting point compilation (Tetko et al.; mined from patent text by program, amines drawn as free bases though some values may be those of a salt).

SMILES	melting point [°C]
Cc1ccccc1-c1nc2n(c1-c1ccc(C3(NC(=O)OC(C)(C)C)CCC3)c(F)c1)-c1cccnc1Nc1ccccc1-2	138 to 140
Cc1ccc(-c2ccccc2C#N)nc1	80 to 81
CC(C)C1=C(C#N)C(c2cccc(N3CCOCC3)c2)c2c[nH]nc2N1 (stereo not drawn)	254 to 257
CSc1nc(C)c(Cl)c(Cl)n1	49 to 50
CCCCC(CC)n1c(CC)nc2c(-c3c(C)cc(C)cc3C)ncnc21 (stereo not drawn)	99 to 100
C#CCN(c1cc(-c2ccnc3c(C(=O)c4cccs4)cnn23)ccc1F)S(C)(=O)=O	149 to 153
CC(C)(C)OC(=O)NCCCON=C(c1ccccc1)c1cc2ccncc2[nH]1	52 to 58
C=C1NC(=O)N(CCCC)C1=O	73
CC(O)Cc1cnn(-c2c(Cl)cc(C(F)(F)F)cc2Cl)n1 (stereo not drawn)	68 to 69
COc1ccc(Nc2cncc(-c3cccc(Nc4ccccn4)c3)c2)cc1	161 to 165
CCc1cc(C)c(Br)c(CC)c1-c1c(O)c(C)nn(C)c1=O	235 to 236
COc1ccc(Cn2nnnc2C(=O)Nc2cc(Cl)cc(NC(=O)c3nnnn3Cc3ccc(OC)cc3)n2)cc1	201 to 203
CCCCOC(=O)C1CC2CC(CP(=O)(O)O)CCC2CN1 (stereo not drawn)	161 to 169
Clc1ccc2c(c1)C(c1ccccc1)Nc1nccn1-2 (stereo not drawn)	239 to 241
Cn1ncc(C(=O)O)c1C(=O)Nc1ccn2nc(-c3ccnc(F)c3)nc2c1	> 290
CCC(OC)C1(OC)OC12CO2 (stereo not drawn)	68 to 70
O=c1[nH]c2ccccc2n1CCN1CCN(c2cc(O)cc(C(F)(F)F)c2)CC1	170
COc1ccc(CN(C)CCCCc2ccc(NC(=O)c3cccc4c(=O)c5cccc(F)c5[nH]c34)cc2)cc1OC	131
COc1cccc(N2CCN(c3c(C)c(C)c4c(c3C)C(N3CCCC3)C(C)(C)O4)CC2)c1 (stereo not drawn)	106 to 107
CC(C)C[C@H](NC(=O)OC(C)(C)C)C(=O)N[C@H](C(=O)NN)[C@@H](C)O	146 to 148
CC12CC3(C)CC(c4ccc(C(=O)O)cc4)(C1)CC(c1ccc(C(=O)O)cc1)(C2)C3	252 to 255
NC1=C(N)C(=O)C(N)=C(N)C1=O	260 to 262

Continued, values first:

melting point [°C]	SMILES
147 to 148	Cc1ncn(-c2cc(F)ccc2CNC(=O)c2nc3n(c(=O)c2OCc2ccccc2)CCN3c2ccccc2)n1
137 to 140	COC(=O)c1cccc(-c2ccccc2OC2OC(C)C(O)C(O)C2O)c1 (stereo not drawn)
195 to 196	CCC(=O)N1CCC(NC(=O)Nc2ccc(OC(F)(F)F)cc2)CC1
95 to 97	COC(=O)c1cccn1Cc1ccccc1N
138	O=C(NO)[C@H](CNS(=O)(=O)c1ccc(OCc2c(C(F)(F)F)nn3ccccc23)cc1)N1CCN(Cc2ccccc2)CC1
> 300	NCCc1c2ccccc2n2c1[nH]c(=O)c1ccccc12
202 to 204	CC(C(N)=O)n1c(-c2ccc(Cl)cc2)nc2cccnc21 (stereo not drawn)
145 to 150	N=C(N)c1ccc2c(c1)N(CC(=O)c1ccc(Br)cc1)C(=O)CN2
201 to 205	COC(=O)CCc1ccc2c(c1)nc(N)c1ncn(CC(C)(C)O)c12
211 to 212	Cc1cc(F)ccc1-c1nc(NC2CCOCC2)nc2c1ccc(=O)n2-c1ccccc1F
160	CN(Cc1cccc(-c2ccc(CC3SC(=O)NC3=O)cc2)c1)C(=O)c1cccs1 (stereo not drawn)
180 to 182	O=c1[nH][nH]c(=O)c2c(O)c3c(C(F)(F)F)cccc3nc12
125 to 127	COC(=O)c1ccc(OC(=O)c2ccc(OC)c(C34CC5CC(CC(C5)C3)C4)c2)cc1O
106	O=C(OCc1ccc(Br)cc1)C1C(=O)OC2CC(=O)N21 (stereo not drawn)
127 to 129	COC(=O)c1ccc2sc3ccccc3c2c1
108 to 109	COC(=O)CC[C@H](NC(=O)c1ccc(OCc2ccccc2)cc1)C(=O)OC
